Source: patent US20140005163A1 (NOVARTIS AG, priority 2010, published 2014)
pIC50: −log10 of the molar value. ≈ marks a conversion by molar mass, not a printed value.

What was measured:
PI3K alpha = biological target: T1, PI3K alpha (Homo sapiens, UniProt P42336); assay: PI3K alpha kinase assay (Kinase-Glo luminescence); assay type: biochemical
T1 construct: p85(iSH2) fusion partner (see partner chain) (N); His tag (C); made in house; host or cells: baculovirus; Tn5 (Trichoplusia ni) or TiniPro insect cells
In short: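 PI3Kα construct EMV B1075 (10 nM final) was preincubated with 10 μg/mL phosphatidylinositol in 10 mM Tris-HCl pH 7.5, 3 mM MgCl2, 50 mM NaCl, 0.05% CHAPS, 1 mM DTT. Reaction started with 1 μM ATP, 60 min at room temperature; remaining ATP measured by Kinase-Glo luminescence. IC50 from 4-parameter logistic fit of 8-point titrations.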

Solubility at pH 6.8 = assay type: physicochemical; details: pH 6.8, aqueous buffer, thermodynamic from solid; read-out: solubility
In short: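 Solubility was measured at pH 6.8 following the cited Zhou et al. (2007) procedure.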

[1] = system: PKB Ser473 phosphorylation in Rat1-myr-HA-p110 delta cells; assay: Reverse protein array assay, PKB Ser473 phosphorylation in Rat1-myr-p110 delta cells; assay type: cell-based; details: read-out: p-PKB IC50
In short: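 Measured: PKB Ser473 phosphorylation by reverse protein array in Rat1 cells expressing myr-HA-p110 alpha, beta or delta, after 30 min compound treatment at 37 °C with 0.2% DMSO vehicle.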

T1 sequence (P42336 with tags, fused parts or gaps limits assumed): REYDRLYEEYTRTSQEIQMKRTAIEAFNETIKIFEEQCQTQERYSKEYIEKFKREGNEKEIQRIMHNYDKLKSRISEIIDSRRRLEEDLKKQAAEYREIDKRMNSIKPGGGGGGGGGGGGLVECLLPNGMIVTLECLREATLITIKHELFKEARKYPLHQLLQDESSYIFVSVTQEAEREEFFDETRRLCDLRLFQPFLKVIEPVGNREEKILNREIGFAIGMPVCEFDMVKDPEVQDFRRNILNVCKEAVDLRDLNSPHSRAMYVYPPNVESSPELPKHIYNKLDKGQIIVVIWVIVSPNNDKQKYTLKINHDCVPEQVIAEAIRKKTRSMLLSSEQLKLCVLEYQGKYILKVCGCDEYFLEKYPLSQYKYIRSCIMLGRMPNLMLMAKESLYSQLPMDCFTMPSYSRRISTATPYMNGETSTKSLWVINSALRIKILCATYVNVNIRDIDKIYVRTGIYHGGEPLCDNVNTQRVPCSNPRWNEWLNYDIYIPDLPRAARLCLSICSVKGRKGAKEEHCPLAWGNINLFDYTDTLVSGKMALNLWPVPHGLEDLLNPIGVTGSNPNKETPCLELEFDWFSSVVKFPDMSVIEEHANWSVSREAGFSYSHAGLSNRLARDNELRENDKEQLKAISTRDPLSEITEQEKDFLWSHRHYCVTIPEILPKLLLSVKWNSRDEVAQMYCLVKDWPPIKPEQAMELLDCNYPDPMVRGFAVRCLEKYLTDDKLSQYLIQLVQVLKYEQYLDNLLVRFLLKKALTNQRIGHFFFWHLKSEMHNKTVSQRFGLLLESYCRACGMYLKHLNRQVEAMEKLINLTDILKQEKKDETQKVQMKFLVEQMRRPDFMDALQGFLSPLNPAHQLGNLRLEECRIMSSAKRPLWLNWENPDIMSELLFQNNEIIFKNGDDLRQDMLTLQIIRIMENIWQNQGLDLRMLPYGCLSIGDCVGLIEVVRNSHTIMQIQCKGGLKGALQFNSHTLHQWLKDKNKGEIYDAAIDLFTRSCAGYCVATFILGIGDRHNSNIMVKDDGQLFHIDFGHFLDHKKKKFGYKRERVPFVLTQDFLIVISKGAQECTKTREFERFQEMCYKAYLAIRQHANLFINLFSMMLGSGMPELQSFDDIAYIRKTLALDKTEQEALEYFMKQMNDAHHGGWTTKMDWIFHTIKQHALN

Compound | pIC50 (PI3K alpha) | solubility (Solubility at pH 6.8) | pIC50 [1]
Cc1nn(C(C)C)cc1-n1c(=O)n(C)c2cnc3ccc(-c4ccc(N5CCC5)nc4)cc3c21 [Example 5.2, 8-(6-Azetidin-1-yl-pyridin-3-yl)-1-(1-isopropyl-3-methyl-1H-pyrazol-4-yl)-3-methyl-1,3-dihydro-imidazo[4,5-c]quinolin-2-one] | 7.47 | 7 µg/mL (≈ 15.4 µM) | 7.57
Cc1nn(C)cc1-n1c(=O)n(C)c2cnc3ccc(-c4cnc5c(c4)nc(N(C)C)n5C)cc3c21 [Example 70, 8-(2-Dimethylamino-3-methyl-3H-imidazo[4,5-b]pyridin-6-yl)-1-(1,3-dimethyl-1H-pyrazol-4-yl)-3-methyl-1,3-dihydro-imidazo[4,5-c]quinolin-2-one] | 6.43 | 47 µg/mL (≈ 101 µM) | 6.56
Cc1nn(CC(=O)N(C)C)cc1-n1c(=O)n(C)c2cnc3ccc(-c4ccc(-n5cccn5)cc4)cc3c21 [Example 51.2, N,N-Dimethyl-2-{3-methyl-4-[3-methyl-2-oxo-8-(4-pyrazol-1-yl-phenyl)-2,3-dihydro-imidazo[4,5-c]quinolin-1-yl]-pyrazol-1-yl}-acetamide] | 8.10 | 4 µg/mL (≈ 7.9 µM) | 7.66
COc1ccc(-c2ccc3ncc4c(c3c2)n(-c2cn(CCO)nc2C)c(=O)n4C)cn1 [Example 103.1, 1-[1-(2-Hydroxy-ethyl)-3-methyl-1H-pyrazol-4-yl]-8-(6-methoxy-pyridin-3-yl)-3-methyl-1,3-dihydro-imidazo[4,5-c]quinolin-2-one] | 7.70 | 38 µg/mL (≈ 88.3 µM) | 7.18
CCOc1cncc(-c2ccc3ncc4c(c3c2)n(-c2cn(C)nc2C)c(=O)n4C)c1 [Example 56.1, 1-(1,3-Dimethyl-1H-pyrazol-4-yl)-8-(5-ethoxy-pyridin-3-yl)-3-methyl-1,3-dihydro-imidazo[4,5-c]quinolin-2-one] | 8.40 | 25 µg/mL (≈ 60.3 µM) | 7.30
COCCOc1cncc(-c2ccc3ncc4c(c3c2)n(-c2cn(C)nc2C)c(=O)n4C)c1 [Example 59.1, 1-(1,3-Dimethyl-1H-pyrazol-4-yl)-8-[5-(2-methoxy-ethoxy)-pyridin-3-yl]-3-methyl-1,3-dihydro-imidazo[4,5-c]quinolin-2-one] | 7.74 | > 444 µg/mL | 6.69
Cc1nn(C)cc1-n1c(=O)n(C)c2cnc3ccc(-c4ccc(N)nc4)cc3c21 [Example 23.1, 8-(6-Amino-pyridin-3-yl)-1-(1,3-dimethyl-1H-pyrazol-4-yl)-3-methyl-1,3-dihydro-imidazo[4,5-c]quinolin-2-one] | 8.10 | 16 µg/mL (≈ 41.5 µM) | 7.59
Cc1nn(C(C)C)cc1-n1c(=O)n(C)c2cnc3ccc(-c4ccc(N)nc4)cc3c21 [Example 23.2, 8-(6-Amino-pyridin-3-yl)-1-(1-isopropyl-3-methyl-1H-pyrazol-4-yl)-3-methyl-1,3-dihydro-imidazo[4,5-c]quinolin-2-one] | 7.46 | 45 µg/mL (≈ 109 µM) | 7.74
Cc1nn(C)c(C)c1-n1c(=O)n(C)c2cnc3ccc(-c4cnc(N)nc4)cc3c21 [Example 81.2, 8-(2-Amino-pyrimidin-5-yl)-3-methyl-1-(1,3,5-trimethyl-1H-pyrazol-4-yl)-1,3-dihydro-imidazo[4,5-c]quinolin-2-one] | 7.29 | 133 µg/mL (≈ 332 µM) | 6.42
CCOc1ccc(-c2ccc3ncc4c(c3c2)n(-c2c(C)nn(CC(=O)N(C)C)c2C)c(=O)n4C)cn1 [Example 3.12, 2-{4-[8-(6-Ethoxy-pyridin-3-yl)-3-methyl-2-oxo-2,3-dihydro-imidazo[4,5-c]quinolin-1-yl]-3,5-dimethyl-pyrazol-1-yl}-N,N-dimethyl-acetamide] | 7.24 | > 500 µg/mL | 6.68
COc1ncc(-c2ccc3ncc4c(c3c2)n(-c2cn(C)nc2Cl)c(=O)n4C)cn1 [Example 17.3, 1-(3-Chloro-1-methyl-1H-pyrazol-4-yl)-8-(2-methoxy-pyrimidin-5-yl)-3-methyl-1,3-dihydro-imidazo[4,5-c]quinolin-2-one] | 8.05 | 4 µg/mL (≈ 9.48 µM) | 7.55
Cc1nn(C)cc1-n1c(=O)n(C)c2cnc3ccc(-c4cncc(N)c4)cc3c21 [Example 45.1, 8-(5-Amino-pyridin-3-yl)-1-(1,3-dimethyl-1H-pyrazol-4-yl)-3-methyl-1,3-dihydro-imidazo[4,5-c]quinolin-2-one] | 7.85 | > 385 µg/mL | 6.81
CCOc1cncc(-c2ccc3ncc4c(c3c2)n(-c2c(C)cnn2C)c(=O)n4C)c1 [Example 56.5, 1-(2,4-Dimethyl-2H-pyrazol-3-yl)-8-(5-ethoxy-pyridin-3-yl)-3-methyl-1,3-dihydro-imidazo[4,5-c]quinolin-2-one] | 6.81 | 16 µg/mL (≈ 38.6 µM) | –

Now from value to molecule:

pIC50 (PI3K alpha) | solubility (Solubility at pH 6.8) | pIC50 [1] | Compound
8.15 | 21 µg/mL (≈ 52.1 µM) | 7.25 | Cc1nn(C)cc1-n1c(=O)n(C)c2cnc3ccc(-c4cnc(F)c(N)c4)cc3c21 [Example 149.2, 8-(5-Amino-6-fluoro-pyridin-3-yl)-1-(1,3-dimethyl-1H-pyrazol-4-yl)-3-methyl-1,3-dihydro-imidazo[4,5-c]quinolin-2-one]
8.15 | > 472 µg/mL | 7.92 | CCNc1cc(-c2ccc3ncc4c(c3c2)n(-c2cn(CC)nc2C)c(=O)n4C)cnc1COC [Example 157, 8-(5-Ethylamino-6-methoxymethyl-pyridin-3-yl)-1-(1-ethyl-3-methyl-1H-pyrazol-4-yl)-3-methyl-1,3-dihydro-imidazo[4,5-c]quinolin-2-one]
6.92 | 6 µg/mL (≈ 13.4 µM) | 7.74 | CCn1cc(-n2c(=O)n(C)c3cnc4ccc(-c5cnc(NC)c(Cl)c5)cc4c32)c(C)n1 [Example 146.2, 8-(5-Chloro-6-methylamino-pyridin-3-yl)-1-(1-ethyl-3-methyl-1H-pyrazol-4-yl)-3-methyl-1,3-dihydro-imidazo[4,5-c]quinolin-2-one]
8.40 | 8 µg/mL (≈ 19.3 µM) | 7.80 | COc1cc(-c2ccc3ncc4c(c3c2)n(-c2cn(C)nc2C)c(=O)n4C)cnc1C [Example 184, 1-(1,3-Dimethyl-1H-pyrazol-4-yl)-8-(5-methoxy-6-methyl-pyridin-3-yl)-3-methyl-1,3-dihydro-imidazo[4,5-c]quinolin-2-one]
7.36 | > 486 µg/mL | – | Cc1nn(CCO)cc1-n1c(=O)n(C)c2cnc3ccc(-c4cncc(N5CCOCC5)c4)cc3c21 [Example 175.3, 1-[1-(2-Hydroxy-ethyl)-3-methyl-1H-pyrazol-4-yl]-3-methyl-8-(5-morpholin-4-yl-pyridin-3-yl)-1,3-dihydro-imidazo[4,5-c]quinolin-2-one]
6.79 | 427 µg/mL (≈ 881 µM) | 6.23 | COCCN(C)C(=O)Cn1cc(-n2c(=O)n(C)c3cnc4ccc(-c5ccccc5)cc4c32)c(C)n1 [Example 137, N-(2-Methoxy-ethyl)-N-methyl-2-[3-methyl-4-(3-methyl-2-oxo-8-phenyl-2,3-dihydro-imidazo[4,5-c]quinolin-1-yl)-pyrazol-1-yl]-acetamide]
7.38 | 10 µg/mL (≈ 22.5 µM) | 6.97 | CCOc1ccc(-c2ccc3ncc4c(c3c2)n(-c2cn(CCO)nc2C)c(=O)n4C)cn1 [Example 103.2, 8-(6-Ethoxy-pyridin-3-yl)-1-[1-(2-hydroxy-ethyl)-3-methyl-1H-pyrazol-4-yl]-3-methyl-1,3-dihydro-imidazo[4,5-c]quinolin-2-one]
7.96 | 43 µg/mL (≈ 96.7 µM) | 7.04 | CCOc1cc(-c2ccc3ncc4c(c3c2)n(-c2cn(C)nc2C)c(=O)n4C)cnc1CO [Example 243, 1-(1,3-Dimethyl-1H-pyrazol-4-yl)-8-(5-ethoxy-6-hydroxymethyl-pyridin-3-yl)-3-methyl-1,3-dihydro-imidazo[4,5-c]quinolin-2-one]
7.52 | 92 µg/mL (≈ 194 µM) | 6.46 | COCCOc1cc(-c2ccc3ncc4c(c3c2)n(-c2cn(C)nc2C)c(=O)n4C)cnc1CO [Example 244, 1-(1,3-Dimethyl-1H-pyrazol-4-yl)-8-[6-hydroxymethyl-5-(2-methoxy-ethoxy)-pyridin-3-yl]-3-methyl-1,3-dihydro-imidazo[4,5-c]quinolin-2-one]
8.00 | 125 µg/mL (≈ 282 µM) | 7.39 | COC(C)(C)c1cncc(-c2ccc3ncc4c(c3c2)n(-c2cn(C)nc2C)c(=O)n4C)c1 [Example 239, 1-(1,3-Dimethyl-1H-pyrazol-4-yl)-8-[5-(1-methoxy-1-methyl-ethyl)-pyridin-3-yl]-3-methyl-1,3-dihydro-imidazo[4,5-c]quinolin-2-one]
7.85 | > 434 µg/mL | 7.62 | CNc1ncc(-c2ccc3ncc4c(c3c2)n(-c2cn(C)nc2C)c(=O)n4C)cc1Cl [Example 146.1, 8-(5-Chloro-6-methylamino-pyridin-3-yl)-1-(1,3-dimethyl-1H-pyrazol-4-yl)-3-methyl-1,3-dihydro-imidazo[4,5-c]quinolin-2-one]
8.10 | > 456 µg/mL | – | CCc1ncc(-c2ccc3ncc4c(c3c2)n(-c2cn(C)nc2C)c(=O)n4C)cc1NC(C)C [Example 162, 1-(1,3-Dimethyl-1H-pyrazol-4-yl)-8-(6-ethyl-5-isopropylamino-pyridin-3-yl)-3-methyl-1,3-dihydro-imidazo[4,5-c]quinolin-2-one]
